Experiments:
SARS-CoV [1] = experiment: Antiviral activity against SARS-CoV-1 infected in African green monkey Vero E6 cells expressing TMPRSS2; assay type: functional, organism-based; conditions: Severe acute respiratory syndrome-related coronavirus, Vero C1008
SARS-CoV-2 [2] = experiment: Antiviral activity against SARS-CoV-2 infected in African green monkey Vero E6 cells expressing TMPRSS2 assessed as reduction in virus-induced cytopathic effect measured after 48 hrs by cellular ATP assay; assay type: functional, organism-based; conditions: Severe acute respiratory syndrome coronavirus 2, Vero C1008, 48 h
SARS-CoV-2 [3] = experiment: Antiviral activity against SARS-CoV-2 in human A549-ACE2 cells assessed as reduction in viral growth; assay type: functional, organism-based; conditions: Severe acute respiratory syndrome coronavirus 2, A549-ACE2
SARS-CoV-2 [4] = experiment: Antiviral activity against SARS-CoV-2 B.1 infected in Green monkey VeroE6/TMPRSS2 cells assessed as inhibition of viral replication incubated for 2 days by qRT-PCR analysis; assay type: functional, organism-based; conditions: Severe acute respiratory syndrome coronavirus 2, B.1, VeroE6/TMPRSS2, 48 h
SARS-CoV-2 [5] = experiment: Antiviral activity against SARS-Co-V-2 infected in Vero E6 cells assessed as reduction in viral replication; assay type: functional, organism-based; conditions: Severe acute respiratory syndrome coronavirus 2, Vero C1008
Hepatitis C virus = experiment: Antiviral activity against HCV infected in human Huh-7.5.1 cells assessed as reduction in viral infection incubated for 48 hrs by MTS assay; assay type: functional, organism-based, Hepacivirus hominis; conditions: Huh-7.5.1, 48 h
SARS-CoV-2 [6] = experiment: Antiviral activity against SARS-CoV-2 infected in human A549-ACE2 cells; assay type: functional, organism-based; conditions: Severe acute respiratory syndrome coronavirus 2, A549-ACE2
SARS-CoV-2 [7] = experiment: Antiviral activity against SARS-CoV-2 infected in Vero E6 cells assessed as reduction in viral replication; assay type: functional, organism-based; conditions: Severe acute respiratory syndrome coronavirus 2, Vero C1008
[8] = molecular target: Replicase polyprotein 1ab (Severe acute respiratory syndrome coronavirus 2, UniProt P0DTD1); experiment: Inhibition of N-terminal His6-tagged recombinant full length SARS-CoV-2 3CLpro expressed in Escherichia coli BL21(DE3) using MCA-AVLQSGFR-Lys(Dnp)-Lys-NH2 as fluorogenic substrate preincubated with compound for 10 mins followed by substrate addition by FRET assay
Replicase polyprotein 1a = Replicase polyprotein 1a (Severe acute respiratory syndrome-related coronavirus, UniProt P0C6U8); experiment: Inhibition of SARS-CoV 3CLpro
SARS-CoV-2 [9] = experiment: Antiviral activity against SARS-CoV-2 infected in African green monkey Vero E6 cells assessed as reduction in infection measured after 24 hrs by Plaque assay; assay type: functional, organism-based; conditions: Severe acute respiratory syndrome coronavirus 2, Vero C1008, 24 h
SARS-CoV-2 [10] = experiment: Antiviral activity against SARS-CoV-2 Omicron assessed as reduction of viral growth; assay type: functional, organism-based; conditions: Severe acute respiratory syndrome coronavirus 2, Omicron
[11] = Inhibition of HIV-1 […]; design: species or system Human immunodeficiency virus 1
[12] = system: Respiratory syncytial virus; experiment: Antiviral activity against Respiratory syncytial virus; assay type: functional, organism-based; conditions: human respiratory syncytial virus
[13] = Oral bioavailability in rat at 2 mg/kg by LC-MS/MS analysis; assay type: ADME, organism-based; conditions: in vivo
[14] = Selectivity index, ratio of CC50 for African green monkey Vero cells to EC50 for SARS-COV-2; assay type: cell-based; conditions: read-out: Ratio CC50/EC50
[15] = system: Human immunodeficiency virus 1; experiment: Antiviral activity against HIV-1 3B infected in human MT4 cells assessed as reduction in virus-induced cytopathic effect incubated for 5 days by MTT assay; assay type: functional, organism-based; conditions: Human immunodeficiency virus 1, 3B, MT4, 120 h
[16] = Oral bioavailability in monkey at 3 mg/kg, HPLC analysis; assay type: ADME, organism-based, Macaca mulatta; conditions: rhesus monkey, in vivo
[17] = Plasma protein binding in rat assessed as free fraction by equilibrium dialysis analysis; assay type: ADME, cell-free
[18] = Cytotoxicity against human MT4 cells assessed as reduction in cell viability treated for 5 days by MTT assay; assay type: toxicity, cell-based; conditions: time 5 day
[19] = Oral bioavailability in human at 2 mg; assay type: ADME, organism-based; conditions: in vivo
[20] = Oral bioavailability in Sprague-Dawley rat at 3 mg/kg by HPLC analysis; assay type: ADME, organism-based; conditions: in vivo
[21] = Oral bioavailability in rat; assay type: ADME, organism-based; conditions: in vivo
in vitro = conditions: monkey, Vero E6 cells
SARS-CoV [22] = experiment: Antiviral activity against SARS-CoV infected in Vero E6 cells assessed as reduction in viral replication measured after 48 hrs by qRT-PCR assay; assay type: functional, organism-based; conditions: Severe acute respiratory syndrome-related coronavirus, Vero C1008, 48 h
Ebolavirus = experiment: Antiviral activity against EBOV infected in human Huh-7 cells assessed as reduction in viral replication; assay type: functional, organism-based; conditions: Orthoebolavirus
[23] = system: Middle East respiratory syndrome-related coronavirus; experiment: Antiviral activity against MERS-CoV infected in HAE cells; assay type: functional, organism-based
SARS-CoV-2 [24] = experiment: microbe, parasite or virus in culture; conditions: Severe acute respiratory syndrome coronavirus 2, Vero C1008
[25] = Selectivity index, ratio of CC50 for cytotoxicity against human HEp-2 cells to IC50 for antiviral activity against RSV A2 infected in human HEp-2 cells
[26] = molecular target: Human immunodeficiency virus type 1 reverse transcriptase (Human immunodeficiency virus 1, UniProt Q72547); experiment: Inhibition of wild type HIV-1 reverse transcriptase
[27] = system: Human immunodeficiency virus 2; experiment: Antiviral activity against HIV-2 D194 infected in PBMC assessed as inhibition of viral growth; assay type: functional, organism-based; conditions: Human immunodeficiency virus 2, D194, PBMC
SARS-CoV-2 [28] = experiment: Antiviral activity against SARS-CoV-2 assessed as inhibition of viral replication; assay type: functional, organism-based; conditions: Severe acute respiratory syndrome coronavirus 2
Human coronavirus OC43 = experiment: Antiviral activity against HCoV-OC43; assay type: functional, organism-based; conditions: Betacoronavirus 1
[29] = Oral bioavailability in beagle dog at 2 mg/kg; assay type: ADME, organism-based, Canis lupus familiaris; conditions: in vivo
[30] = Oral bioavailability in Beagle dog at 3 mg/kg; assay type: ADME, organism-based, Canis lupus familiaris; conditions: in vivo
[31] = Inhibition of DENV RNA-dependent RNA polymerase activity; design: species or system Dengue virus

Compound: Cn1cnc(Cn2c(=O)[nH]/c(=N\c3cc4cn(C)nc4cc3Cl)n(Cc3cc(F)c(F)cc3F)c2=O)n1
- EC50 (SARS-CoV [1]): 1900 nM
- EC50 (SARS-CoV-2 [2]): 350 nM

Compound: COc1ccc2cc1Oc1ccc(cc1)C[C@H]1c3c(cc4c(c3Oc3cc5c(cc3OC)CCN(C)[C@@H]5C2)OCO4)CCN1C [CEPHARANTHINE]
- IC50 (SARS-CoV-2 [3]): 240 nM
- IC50 (SARS-CoV-2 [4]): 1900 nM
- EC50 (SARS-CoV-2 [5]): 980 nM
- IC50 (Hepatitis C virus): 60 nM
- IC50 (SARS-CoV-2 [6]): 240 nM

Compound: O=C(OC[C@H]1O[C@@H](OC(=O)c2cc(O)c(O)c(OC(=O)c3cc(O)c(O)c(O)c3)c2)[C@H](OC(=O)c2cc(O)c(O)c(OC(=O)c3cc(O)c(O)c(O)c3)c2)[C@@H](OC(=O)c2cc(O)c(O)c(OC(=O)c3cc(O)c(O)c(O)c3)c2)[C@@H]1OC(=O)c1cc(O)c(O)c(OC(=O)c2cc(O)c(O)c(O)c2)c1)c1cc(O)c(O)c(OC(=O)c2cc(O)c(O)c(O)c2)c1 [TANNIC ACID]
- EC50 (SARS-CoV-2 [7]): 12900 nM
- EC50 [8]: 585 nM
- EC50 (Replicase polyprotein 1a): 8310 nM

Compound: N#Cc1cn([C@@H]2O[C@H](CO)[C@@H](O)[C@H]2O)c2ncnc(N)c12 [TOYOCAMYCIN]
- EC50 (SARS-CoV-2 [9]): 590 nM

Compound: O=C[C@H](C[C@@H]1CCNC1=O)NC(=O)[C@@H]1[C@H]2CCC[C@H]2CN1C(=O)CCc1cc(F)cc(F)c1
- EC50 (SARS-CoV-2 [10]): 33 nM

Compound: [N-]=[N+]=N[C@]1(CO)O[C@@H](n2ccc(N)nc2=O)[C@@H](F)[C@@H]1O [RO-0622]
- EC50 [11]: 1200 nM

Compound: N#C[C@@]1(c2ccc3c(N)ncnn23)O[C@H](COP(=O)(O)OP(=O)(O)OP(=O)(O)O)[C@@H](O)[C@H]1O [RDV-TP]
- EC50 [12]: 13 nM

Compound: N#C[C@@]1(c2ccc3c(N)ncnn23)O[C@H](CO)[C@@H](O)[C@H]1O [GS-441524]
- bioavailability [13]: 50%
- selectivity ratio [14]: > 1280
- EC50 [15]: 590 nM
- EC50 (SARS-CoV-2 [9]): 390 nM
- bioavailability [16]: < 8%
- fraction unbound [17]: 0.62
- CC50 at 120 h [18]: > 500000 nM
- bioavailability [19]: 13%
- bioavailability [20]: 16%

Compound: [2H]c1cc([C@]2(C#N)O[C@H](CO)[C@@H](O)[C@H]2O)n2ncnc(N)c12
- EC50 [15]: 390 nM
- CC50 at 120 h [18]: > 500000 nM
- bioavailability [21]: 21.7%

Compound: CCC(CC)COC(=O)[C@H](C)N[P@](=O)(OC[C@H]1O[C@@](C#N)(c2ccc3c(N)ncnn23)[C@H](O)[C@@H]1O)Oc1ccccc1
- selectivity ratio (in vitro): > 100
- EC50 (SARS-CoV [22]): 69 nM
- EC50 [12]: 21 nM
- EC50 (Ebolavirus): 12 nM
- EC50 [23]: 25 nM
- EC50 (SARS-CoV-2 [24]): 770 nM
- selectivity ratio [25]: 395

Compound: [N-]=[N+]=N[C@]1(COP(=O)(O)OP(=O)(O)OP(=O)(O)O)O[C@@H](n2ccc(N)nc2=O)[C@@H](F)[C@@H]1O
- EC50 [26]: 0.03 nM
- EC50 [27]: 0.018 nM
- EC50 (SARS-CoV-2 [28]): 1200 nM
- EC50 (Human coronavirus OC43): 4300 nM
- bioavailability [29]: 82.7%

Compound: Br.[2H]c1cc([C@]2(C#N)O[C@H](COC(=O)C(C)C)[C@@H](OC(=O)C(C)C)[C@H]2OC(=O)C(C)C)n2ncnc(N)c12 [DEUREMIDEVIR HYDROBROMIDE]
- bioavailability [30]: 80%
- EC50 [15]: 240 nM
- EC50 [31]: 240 nM
- bioavailability [21]: 80%
